Values of other authors in US12171873B2, “Devices and methods for delivery of substances to animals” (Ruminant Biotech Corp Limited, priority 2020, dated 2024).

Legend:
[1] = in vivo
[2] = slaughtered steers, after 48 hour with holding period

BrC(Br)Br [Bromoform, bromoform]
level in milk [1]: no significant increase | residues in meat and tissue [2]: no residues
